Where a SMILES comes first, the peptide text is derived from it.
Target: T1, NS2/3 protease (Hepatitis C virus genotype 1b, UniProt P26663)
T1 construct: In a well defined assay system using purified NS2/3 (904-1206) and an optimized cleavage buffer; made in house; host or cells: E. coli BL21(DE3)pLysS
Experiment: biochemical
Set-up: species or system Hepatitis C virus (HCV) genotype 1b
Details: for trans-cleavage of the peptide by NS2/3 protease: identical assay conditions, data not shown
Method: NS2/3 protease cleavage-site derived peptides were evaluated as potentially competing substrates (Table 1). NS2/3 protease cleavage-site derived peptides and NS4A-derived peptides were synthesized in-house using the standard solid-phase methodology or were made by Multiple Peptide Systems (San Diego, Calif.). Various concentrations of peptides were pre-incubated with 0.54 μM NS2/3 protease for 30 min at 23° C. in 50 mM Hepes, pH 7.0, and 50% (w/v) glycerol. The autocleavage reaction was initiated by addition of n-dodecyl-β-D-maltoside to a final concentration of 0.5%. The final DMSO content never exceeded 5% (v/v). The resulting mixture was then incubated for 3 h at 23° C. The reaction was stopped and quantified.

Row | SMILES | IC50 [µM] | trans-cleavage of the peptide by NS2/3 protease
1 | CC[C@H](C)[C@H](NC(=O)[C@@H]1CCCN1C(=O)[C@H](C)NC(=O)[C@H](CC(C)C)NC(=O)[C@H](CC(C)C)NC(=O)[C@H](CCCNC(=N)N)NC(=O)[C@H](Cc1c[nH]c2ccccc12)NC(=O)CNC(=O)[C@@H](N)CCCCN)C(=O)N[C@H](C(=O)N[C@@H](C)C(=O)N[C@@H](Cc1ccc(O)cc1)C(=O)O)[C@@H](C)O [Peptide 4, KGWRLL-APITAY] | 630 | no trans-cleavage
2 | CC[C@H](C)[C@H](NC(=O)[C@@H]1CCCN1C(=O)[C@H](C)NC(=O)[C@H](CC(C)C)NC(=O)[C@H](CC(C)C)NC(=O)[C@H](CCCNC(=N)N)NC(=O)[C@H](Cc1c[nH]c2ccccc12)NC(=O)CNC(=O)[C@H](CCC(N)=O)NC(=O)CNC(=O)[C@H](CCC(=O)O)NC(=O)[C@H](Cc1ccccc1)NC(=O)[C@@H](N)CO)C(=O)N[C@H](C(=O)N[C@@H](C)C(=O)N[C@@H](Cc1ccc(O)cc1)C(=O)N[C@@H](CO)C(=O)N[C@@H](CCC(N)=O)C(=O)N[C@@H](CCC(N)=O)C(=O)N[C@H](C(=O)O)[C@@H](C)O)[C@@H](C)O [Peptide 1, SFEGQGWRLL-APITAYSQQT] | 270 | no trans-cleavage
3 | CC(C)C[C@H](NC(=O)[C@H](CC(C)C)NC(=O)[C@H](CCCNC(=N)N)NC(=O)[C@H](Cc1c[nH]c2ccccc12)NC(=O)CNC(=O)[C@H](CCC(N)=O)NC(=O)CNC(=O)[C@H](CCC(=O)O)NC(=O)[C@H](Cc1ccccc1)NC(=O)[C@@H](N)CO)C(=O)O [Peptide 2, SFEGQGWRLL] (H-SFEGQGWRLL-OH; N-terminus and C-terminus assumed) | 90 | –
4 | CC[C@H](C)[C@H](NC(=O)[C@@H]1CCCN1C(=O)[C@H](C)N)C(=O)N[C@H](C(=O)N[C@@H](C)C(=O)N[C@@H](Cc1ccc(O)cc1)C(=O)O)[C@@H](C)O [Peptide 5, APITAY] (H-APITAY-OH) | 1000 | –
5 | CC[C@H](C)[C@H](NC(=O)[C@@H]1CCCN1C(=O)[C@H](C)N)C(=O)N[C@H](C(=O)N[C@@H](C)C(=O)N[C@@H](Cc1ccc(O)cc1)C(=O)N[C@@H](CO)C(=O)N[C@@H](CCC(N)=O)C(=O)N[C@@H](CCC(N)=O)C(=O)N[C@H](C(=O)O)[C@@H](C)O)[C@@H](C)O [Peptide 3, APITAYSQQT] (H-APITAYSQQT-OH) | > 1000 | –

From patent US7264811B2, “Purified active HCV NS2/3 protease” (priority 2000, dated 2007)
